Assay results published in article PMC5481443, “High-throughput Screening of Small Molecule Inhibitors of the Streptococcus Quorum-sensing Signal Pathway” (Scientific Reports, 2017).

Key:
[1] = target: MuPEP1 (Streptococcus mutans, UniProt Q8DW05); experiment: Kinetic analysis of MuPEP1 peptidase activity
Method: (§1) The PEP activity was assayed in a 110-μL reaction mixture containing 50 mM Tris-HCl, 150 mM ammonium sulfate, 0.02% Triton X-100, and various concentrations of the substrate. The reaction was started by adding the PEP solution to a final concentration of 0.25–2.0 μM. The reaction was performed at 25 °C, 50 μL of the reaction mixture was transferred to a white 96-well microtiter plate (Thermo Scientific 236105), and the fluorescence intensity was immediately measured by using a Promega GloMax®-Multi plus Detection System (Promega, Madison, WI) with excitation at 405 nm and emission at 495–505 nm.
(§2) Supplementary Figure S1: v/[E] versus substrate concentration plots for the PEP […]
(§3) The data were fitted with a saturation curve with the
(§4) Tris-HCl, 150 mM ammonium sulfate, and Triton X-100, pH 7.0, at 25 °C. The concentrations of Triton X-100 were 0.01% for MuPEP1 and 0.02% for S. pneumoniae PEP. The concentrations of PEP or the peptidase domain of BlpA were […]
(1 picture or pasted object on this page, not shown here)

[2] = tested on: S. mutans competence development; experiment: Transformation assay (competence development); assay type: cell-based; details: 10 μM compound
Method: Four microliters of the overnight culture of S. mutans in BHI medium was inoculated to 0.4 mL of CDM in the absence or presence of 10 µM Compound 1. After 7.5 h incubation at 37 °C in 5% CO2 under anaerobic condition in the AnaeroPack system, 1 μg of plasmid pSET2 was added to the culture. After additional 3-h growth, the cultures were chilled on ice, and serial dilutions of the cultures were plated onto BHI agar plates (for enumeration of total CFU) and onto BHI agar plates containing 1 mg/mL spectinomycin (for enumeration of transformants). Transformation efficiency was determined after 24–48 h incubation at 37 °C in 5% CO2 under anaerobic condition.

[3] = target: peptidase domain of S. pneumoniae BlpA (Streptococcus pneumoniae, UniProt G3ECC8); experiment: BlpA peptidase domain assay with tCComC-AFC
Sequence of peptidase domain of S. pneumoniae BlpA (G3ECC8 entry or part of it): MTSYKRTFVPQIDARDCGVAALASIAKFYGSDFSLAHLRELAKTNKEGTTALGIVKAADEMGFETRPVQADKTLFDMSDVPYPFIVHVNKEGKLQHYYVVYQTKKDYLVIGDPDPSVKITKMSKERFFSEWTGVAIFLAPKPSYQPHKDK
Method: as §1, §2, §3, §4
(1 picture or pasted object on this page, not shown here) […]
(§5) domain of S. pneumoniae BlpA with Compound 1. […]
(§6) was digested with 0.5 μM PEP or the peptidase domain of BlpA in the presence of […]

[4] = tested on: S. mutans; experiment: Bacterial growth / viable cell count; assay type: cell-based, S. mutans strain UA159; details: 25 μM compound, tube culture
Method: […] After 18 h of standing incubation at 37 °C in 5% CO2 under anaerobic condition in an AnaeroPack system (Mitsubishi Gas Chemical, Tokyo, Japan), the cultured medium was removed, and adherent bacteria were stained with 200 μL of 0.005% crystal violet for 30 min. The wells were washed twice with 300 μL of distilled water and then air dried. The dye was extracted into 200 μL of 60% ethanol, and the biofilm mass was estimated by using a microplate reader (Bio-Rad, Model 680XR) (Bio-Rad, Hercules, CA) to measure the absorbance at 595 nm. The bacterial growth was determined by measuring the turbidity (absorbance at 595 nm) of parallel wells.
For the count of viable cells shown in Fig. 2B, part of the culture was serially diluted and spread onto the BHI plate, and the plates were incubated overnight at 37 °C in 5% CO2 under anaerobic condition.

[5] = target: MuPEP1 (S. mutans PEP) (Streptococcus mutans, UniProt Q8DW05); experiment: MuPEP1 peptidase inhibition assay with fluorogenic substrate tCComC-AFC; assay type: biochemical
Sequence of MuPEP1 (S. mutans PEP) (Q8DW05 entry or part of it): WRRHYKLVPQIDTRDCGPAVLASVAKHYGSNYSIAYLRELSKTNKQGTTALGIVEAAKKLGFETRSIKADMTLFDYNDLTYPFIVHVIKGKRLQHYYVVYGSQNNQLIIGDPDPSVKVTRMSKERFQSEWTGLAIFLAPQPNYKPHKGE
Method: This region of ComC is necessary and sufficient for the interaction with PEP[17]. […] Thus, this synthetic peptide was used as a functionally relevant substrate. Assays were performed in black flat-bottom 384-well plates (Greinar, 784900) under ambient conditions. All compounds dissolved in DMSO were predispensed on the plate (100 nL/well) with the final concentration of 20 μM, and then aliquots of 5 μL of 0.5 μM MuPEP1 (final concentration) in 50 mM Tris-HCl, 150 mM ammonium sulfate, and 0.02% Triton X-100 were dispensed to each well by using a Multidrop Combi dispenser (Thermo Fisher Scientific, Vantaa, Finland). […] These reaction mixtures contained DMSO at a 3% final concentration. Each 384-well plate contained 16 negative control wells (lacking MuPEP1) and 16 positive control wells (100 nL of DMSO replacing 100 nL of compound in DMSO). After 3-h incubation, the fluorescence intensity of the released AFC was measured by using a microplate reader, PHERAstar (BMG Labtech, Offenburg, Germany), with excitation at 380 nm and emission at 490 nm.
Fifteen microliters of 3.3 mM of phosphoric acid was added to 8 μL of the reaction mixtures from the screening. […] The fluorescence was detected by using excitation at 360 nm and emission at 470 nm.
Dose-dependent inhibitory activities of compounds against MuPEP1 were examined in quadruplicate. […]

[6] = tested on: nlmA and nlmC gene expression of S. mutans; experiment: Real-time quantitative RT-PCR of bacteriocin genes; assay type: cell-based; details: 25 μM compound
Method: Six microliters of the overnight culture of S. mutans in BHI medium was inoculated into 0.4 mL of CDM. After 17 h of incubation at 37 °C in 5% CO2 under anaerobic condition in an AnaeroPack system, cells were collected by centrifugation and treated with labiase (Cosmo Bio, Tokyo, Japan), and total RNA was extracted and purified by using a PureLink™ RNA Mini kit (Ambion, Austin, TX). Purified RNA was reverse transcribed to cDNA by using SuperScript® VILO™ cDNA Synthesis kit. Quantitative real-time PCR was performed by using a Power SYBR® Green PCR Master Mix (Applied Biosystems, Foster City, CA) on a StepOnePlus Real–Time PCR system (Applied Biosystems). The gene expression levels were calculated by using the ΔΔ threshold cycle (ΔΔC T) method. The 16S rRNA gene of S. mutans was used as the housekeeping reference. The oligonucleotides to amplify each gene were as follows: 5′-[…]-3′ and 5′-[…]-3′ for 16S rRNA, 5′-[…]-3′ and 5′-[…]-3′ for nlmA (SMU. 150), and 5′-[…]-3′ and 5′-[…]-3′ for nlmC (SMU. 1914C). All experiments using commercially available kits were performed according to the manufacturer’s instructions.

[7] = target: T1, S. pneumoniae PEP (Streptococcus pneumoniae serotype 4, UniProt Q03727); experiment: S. pneumoniae PEP peptidase assay with tCComC-AFC; assay type: biochemical
T1 construct: His-tag; made in house; host or cells: E. coli BL21 (DE3) pLysS
T1 sequence (Q03727 11-138): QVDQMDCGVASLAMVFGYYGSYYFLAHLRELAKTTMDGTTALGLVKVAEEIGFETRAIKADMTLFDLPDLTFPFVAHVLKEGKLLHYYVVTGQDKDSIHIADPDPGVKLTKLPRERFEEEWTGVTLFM
Method: as §1, with “nm. […]” for “nm.”
as §4, §5, §6

[8] = tested on: S. mutans biofilm formation; experiment: Biofilm formation assay (crystal violet staining; tilted tube culture); assay type: cell-based, S. mutans strain UA159
Method: After 18 h of standing incubation at 37 °C in 5% CO2 under anaerobic condition in an AnaeroPack system (Mitsubishi Gas Chemical, Tokyo, Japan), the cultured medium was removed, and adherent bacteria were stained with 200 μL of 0.005% crystal violet for 30 min. […] The dye was extracted into 200 μL of 60% ethanol, and the biofilm mass was estimated by using a microplate reader (Bio-Rad, Model 680XR) (Bio-Rad, Hercules, CA) to measure the absorbance at 595 nm. […]

[9] = target: S. oralis PEP (Streptococcus oralis, UniProt A0A1X1IJV1); experiment: S. oralis PEP peptidase assay with tCComC-AFC
Sequence of S. oralis PEP (A0A1X1IJV1 entry or part of it): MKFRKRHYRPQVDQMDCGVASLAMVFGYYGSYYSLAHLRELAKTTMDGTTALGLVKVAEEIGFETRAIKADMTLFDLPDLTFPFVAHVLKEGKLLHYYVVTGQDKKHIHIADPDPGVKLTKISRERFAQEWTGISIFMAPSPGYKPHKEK
Method: as §1
Supplementary Figure S1: v/[E] versus substrate concentration plots for the PEP
as §3
Tris-HCl, 150 mM ammonium sulfate, and Triton X-100, pH 7.0, at 25 °C. The
concentrations of Triton X-100 were 0.01% for MuPEP1 and 0.02% for S.
pneumoniae PEP. […]

[10] = tested on: CC(C)C[C@H](NC(=O)[C@H](CCC(=O)O)NC(=O)[C@H](CCCCN)NC(=O)[C@H](CCC(=O)O)NC(=O)[C@H](CC(N)=O)NC(=O)[C@H](CC(C)C)NC(=O)[C@@H](NC(=O)[C@@H]1CCCN1C(=O)[C@H](Cc1ccccc1)NC(=O)[C@H](CCC(N)=O)NC(=O)[C@H](C)N)C(C)C)C(=O)N[C@@H](CCCCN)C(=O)N[C@@H](CCC(=O)O)C(=O)N[C@H](C(=O)N[C@@H](CC(C)C)C(=O)NCC(=O)NCC(=O)Nc1ccc2c(C(F)(F)F)cc(=O)oc2c1)C(C)C; experiment: purified protein, by the assay type
[11] = other: MuPEP1, non-competitive inhibition model fit, Fig. 2E, pH 7.0, 25.0 °C
[12] = other: saturation curve, pH 7.0, 25 °C, Fig. S1

Sequence of MuPEP1 (Q8DW05 entry or part of it): as the sequence (Q8DW05 entry or part of it) above

Compound: CCCNC(=O)OCC1CC2CCN1CC2C#Cc1ccccc1 (centres unmarked) [Compound 1]
- Ki [1]: 38 µM
- Inhibition mechanism ([1]; Vmax decreased, Km unaffected): non-competitively inhibited
- Transformation efficiency relative to absence of compound [2]: 35%
- IC50 [3]: 16 µM
- Antimicrobial activity against S. mutans [4]: did not show antimicrobial activity
- IC50 [5]: 38 µM
- Relative gene expression level of nlmA [6]: 18%
- Relative gene expression level of nlmC [6]: 23%
- IC50 [7]: 29 µM
- Biofilm in standing culture in tilted round-bottom culture tubes ([8]; 25 μM compound, overnight standing culture): easily detached and dispersed after gentle swirling
- EC50 ([8]; Streptococcus mutans, S. mutans, crystal violet staining, 96-well plate, 18 h, read-out: EC50 of suppression of biofilm formation): 5 µM
- IC50 [9]: 25 µM

Compound: MuPEP1 (Streptococcus mutans UA159)
- Km [10, 11]: 43 µM
- kcat [10, 11]: 0.00333 s⁻¹
- Km [10, 12]: 46 µM
- kcat [10, 12]: 0.00317 s⁻¹

Compound: S. oralis PEP (Streptococcus oralis subsp. oralis)
- Km [10, 12]: 8.2 µM
- kcat [10, 12]: 0.00123 s⁻¹

Compound: peptidase domain of S. pneumoniae BlpA (Streptococcus pneumoniae)
- Km [10, 12]: 18 µM
- kcat [10, 12]: 0.011 s⁻¹
